Six molecules from patent publication US9260739B2, “Method for the detection of acid production by cariogenic bacteria” (Ivoclar Vivadent AG, priority 2010, dated 2016) can be followed below.

Structures are written as SMILES.

For one data set, the system named is S. sobrinus. Briefly: Acid production in vitro by pure culture, colour change of pH indicator. The following applies: carbon source at 20% in the reaction batch, only S. sobrinus, FIG. 1. The data set is classed as cell-based. How it is done:
Stock cultures of the strain selected for the experiments were stored on CRYOBANK (Mast Diagnostica, CRYO/M) ceramic supports at a temperature of −80° C. For culturing, a ceramic ring was placed into 10 ml of nutrient medium and incubated 14-72 h. This culture was designated passage 0 (P0). Then, 100 μl of culture were inoculated into 10 ml of fresh medium and incubated for 24 h. Cultures of passage 2 were used for the subsequent experiments on acid production. The cultures were diluted in this case until an absorption at 650 nm of about 0.6-1.0 was obtained. The bacterial suspensions were centrifuged at 8000 rpm for 5 minutes. The culture supernatant was removed and the pellet was resuspended in the same volume of water (10 ml, deionized, sterile). The sample was centrifuged again (8000 rpm, 5 minutes) and the supernatant was removed. The pellet was subsequently resuspended in 1 ml of deionized water which corresponds to 1/10 of the original volume. […] Then, the appropriate pH was adjusted and the mixture was filled up to the calculated volume using deionized water. […] After addition of the bacterial suspension to the respective test solution, the colour change of the pH indicator was assessed visually against a reference sample (only test solution) at regular intervals. […]
Consider `OC[C@H]1O[C@@](CO)(O[C@H]2O[C@H](CO)[C@@H](O)[C@H](O)[C@H]2O)[C@@H](O)[C@@H]1O` [sucrose], for which the “time within which acid formation can be detected” value was at most 15 min.

System in a further data set: not listed separately
Briefly: pK of pH indicators. The data set is classed as physicochemical. As to conditions: pH indicator. On the procedure: In an alternative embodiment, the pH is determined using a pH indicator which changes colour on acid formation. The pH indicator is preferably added to the cariogenic bacteria together with the carbon source, e.g. by joint immobilization of pH indicator and carbon source on a test strip or by simultaneous addition of pH indicator and carbon source (preferably in the form of a single solution) to a diluted, undiluted or concentrated plaque or saliva sample. […] These comprise, e.g., the indicators bromocresol purple, bromocresol green, m-cresol purple, bromothymol blue, phenol red and chlorophenol red. […] The incubation time that must be applied until a colour change can be detected, depends on the carbon sources and test reagents used and also on their absolute and relative quantitative ratios to one another. In a preferred embodiment, the time period to a colour change of the pH indicator is less than 60 minutes, less than 45 minutes, less than 30 minutes, less than 20 minutes or less than 15 minutes after mixing bacteria, carbon source and indicator.
The molecule `Cc1cc(O)ccc1C1(c2ccc(O)cc2C)OS(=O)(=O)c2ccccc21` [m-Cresol purple] yielded a pK of 8.2. Consider `Cc1c(C2(c3cc(C(C)C)c(O)c(Br)c3C)OS(=O)(=O)c3ccccc32)cc(C(C)C)c(O)c1Br` [Bromothymol blue], for which the pK is recorded as 7. Molecule `O=S1(=O)OC(c2ccc(O)c(Cl)c2)(c2ccc(O)c(Cl)c2)c2ccccc21` [Chlorophenol red] showed a pK of 5.6. On to `Cc1cc(C2(c3cc(C)c(O)c(Br)c3)OS(=O)(=O)c3ccccc32)cc(Br)c1O` [Bromocresol purple], for which the pK is 6. The same measure, in the same setting: then `Cc1c(C2(c3cc(Br)c(O)c(Br)c3C)OS(=O)(=O)c3ccccc32)cc(Br)c(O)c1Br` [Bromocresol green], with 4.7.
